Assay results taken from US9642835B2, “Modulators of GTPase and use in relevant treatment” (STC.UNM, priority 2010, dated 2017).
Where two headings read alike, the source gives them in different places.

How the values were obtained:
Cdc42 WT = target: T1, Cdc42 WT (Homo sapiens, UniProt P60953); experiment: Bead-based flow cytometry dose response, BODIPY-FL-GTP binding; conditions: for EC50: read-out: Cdc42 WT EC50; for Emax: read-out: Cdc42 WT Efficacy
T1 construct: purchased Cytoskeleton
Protocol: (§1) Bead sets for multiplex assays were custom synthesized by Duke Scientific Corp (Fremont, Calif.), but may now be ordered from Thermo/Fisher. […] Negative controls, contained the bead mixture with fluorescent GTP, 0.5 mM unlabeled GTP as a competitor, and 1% DMSO. […] The resulting time-dependent data (one file per plate) were analyzed using IDLQuery software to determine the compound activity in each well. Gating based on forward scatter (FS) and side scatter (SS) parameters was used to identify singlet bead populations. Gating based on FL8 emission distinguishes the beads coated with different proteins, and the median fluorescence per bead population was calculated. […] Baselines were set to 100% based on measurements from the 1% DMSO containing positive controls as further described in PubChem. {PubChem #72}
(§2) Briefly, compounds were serially diluted 1:3 a total of eight times from a starting concentration of 10 mM giving a 9-point dilution series in DMSO. The final concentrations of inhibitors in the assay ranged from 10 nM to 100 μM. Dose-response analyses were examined in the presence of NP-HPS buffer containing: a) 1 mM EDTA; or b) 1 mM MgCl2. […] For assays with EDTA we used one multiplex (Rab7 wt, Rab2 wt, H-Ras wt, H-RasG12V, Cdc42 wt, and Cdc42Q61L) and 3 single-plexes (for Rac1 wt, Rac1 Q61L and GST-GFP).
(§3) GTPase activators were identified on the basis of an increase in fluorescent GTP-binding.
(§4) In experiments including magnesium, six GST-GTPases were assayed simultaneously in a single multiplex (Rac1 wt, Rac1Q61L, RhoA wt, RhoAL63, Cdc42 wt and Cdc42Q61L) and 1 nM BODIPY-FL-GTP binding was measured in the presence or absence of the serial drug dilution series. Each dose response series was run in duplicate.

Cdc42 ACT (Cdc42Q61L) = Cdc42 ACT (Cdc42Q61L) (Homo sapiens, UniProt P60953, Q61L); experiment: as above
Cdc42 ACT (Cdc42Q61L), sequence (P60953 whole entry Q61L): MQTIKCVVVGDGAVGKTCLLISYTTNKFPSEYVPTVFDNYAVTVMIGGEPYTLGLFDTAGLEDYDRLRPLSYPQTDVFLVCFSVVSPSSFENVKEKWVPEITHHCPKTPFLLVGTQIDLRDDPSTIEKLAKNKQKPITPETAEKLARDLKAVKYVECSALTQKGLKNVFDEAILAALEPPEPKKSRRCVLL
Protocol: as §1, §2, §3, §4

[1] = tested on: Cdc42, Rab2, Rab7, activated Rac1Q61L, Rac1, and H-Ras; experiment: Multiplexed primary screen, fluorescent GTP binding; conditions: 10 μM compound
Protocol: Multiplex screening was performed by measuring GTP-binding activities of six GTPases (Cdc42, Rab2, Rab7, activated Rac1Q61L, Rac1, and H-Ras) simultaneously using special glutathione (GSH) bead sets having varied fluorescence intensities at a fixed wavelength^38. Individual GST-GTPase chimeras were tested against approximately 200,000 small molecules from the Molecular Libraries Small Molecule Repository (MLSMR). Results of fluorescent GTP-binding from the entire primary screen are summarized in the open access Pubchem database as required for projects conducted under the Roadmap Initiative (AID 757-761, 764). […] In total 1877 compounds/194,635 were identified as activators or inhibitors in the primary screen. On the order of 100-500 compounds were found active per GTPase target, enabling an unprecedented, comprehensive evaluation of small molecules active against various Ras-related GTPase family members. Here we report one compound active specifically on Cdc42 and structure activity relationships determined through chemical synthesis.
Multiplex analysis of small GTPases, were performed as we have described previously {Surviladze, 2009}. […] Flow cytometric light scatter and fluorescence emission at 530+/−20 nm (FL1) and 665+/−10 nm (FL8) were collected on a Cyan ADP flow cytometer (Beckman Coulter, Fullerton, Calif.). The resulting time-dependent data (one file per plate) were analyzed using IDLQuery software to determine the compound activity in each well. […] Gating based on FL8 emission distinguishes the beads coated with different proteins, and the median fluorescence per bead population was calculated. […]
For detection of GTP binding to small G-proteins we used bead-based multiplex flow cytometry assay {Surviladze, 2009}. […] Six individual GST-GTPases representative of Rho, Ras and Rab branches of the Ras-related GTPase family (Cdc42 wt, Rac1 wt, Rac1Q61L, Rab2 wt, Rab7 wt, and H-Ras wt) were first bound to GSH-beads of a particular fluorescence intensity. […]

wild-type Cdc42 = target: T2, wild-type Cdc42 (Homo sapiens, UniProt P60953); experiment: Equilibrium binding assay of BODIPY-FL-GTP; conditions: 1.5 nM substrate, 1 mM MgCl2; read-out: IC50, inhibition of fluorescent GTP binding to Cdc42 wt
T2 construct: purchased Cytoskeleton
T2 sequence (P60953 whole entry): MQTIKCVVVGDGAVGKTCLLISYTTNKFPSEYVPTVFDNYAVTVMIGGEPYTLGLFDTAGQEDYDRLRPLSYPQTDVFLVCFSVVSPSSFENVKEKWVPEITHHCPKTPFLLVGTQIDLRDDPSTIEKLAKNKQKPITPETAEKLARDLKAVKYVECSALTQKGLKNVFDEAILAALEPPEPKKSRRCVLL
Protocol: Changes in GTP binding affinity (Kd) and Bmax in the presence of a given compound were measured in multiplex (Cdc42, Cdc42Q61L, Rab2, Rab7, H-Ras and H-RasG12V) and single-plex formats (Rac1, Rac1Q61L and GST-GFP). GTPases and the GST-GFP control were individually bound to glutathione beads overnight at 4° C., washed with HPSE buffer, then resuspended together or assayed individually in the same buffer containing DTT and BSA. Bound GTPases were analyzed by mixing 5 μl protein-bound beads with 2.5-100 nM BODIPY-GTP in a total volume of 10 μl and incubating with rotation at 4° C. for 90 min. DMSO controls and samples treated with 10 μM of each test compound were run in parallel. Bound fluorescent nucleotide was measured using a Cyan ADP flow cytometer. Data were converted to ASCII format using IDLeQuery, exported and analyzed using Prism (GraphPad Software, Inc., San Diego, Calif.) non-linear, one-site binding.
Wild-type GST-Cdc42 (4 μM) was bound to GSH-beads overnight at 4° C. Cdc42 on GSH-beads was depleted of nucleotide by incubating with 10 mM EDTA containing buffer for 20 min at 30° C., washing twice with NP-HPS buffer, then re-suspended in the same buffer containing 1 mM EDTA/or 1 mM MgCl2, 1 mM DTT and 0.1% BSA. […] Samples incubated at 4° C. for 45 min and binding of fluorescent nucleotide to enzyme measured using an Accuri flow cytometer. […]

[2] = Table 6, R3 analogs, read-out: Cdc42 ACT EC50
[3] = Table 5, R2 analogs, read-out: Cdc42 ACT EC50

T1 sequence (P60953 whole entry): as above

| SMILES | EC50 (Cdc42 WT; Table 6, R3 analogs) | Emax (Cdc42 WT; Table 6, R3 analogs) | EC50 (Cdc42 ACT (Cdc42Q61L); [2]) | EC50 (Cdc42 WT; Table 5, R2 analogs) | Emax (Cdc42 WT; Table 5, R2 analogs) | also measured |
| --- | --- | --- | --- | --- | --- | --- |
| NS(=O)(=O)c1ccc(N2N=C(c3ccccc3)CC2c2cccc(F)c2)cc1 (stereo not drawn) [CID 12005853] | 4.9 µM | 71% | 9.6 µM |  |  |  |
| COc1ccccc1C1CC(c2ccccc2)=NN1c1ccc(S(N)(=O)=O)cc1 (stereo not drawn) [CID 42628035] | 22.5 µM | 45% | 78.9 µM |  |  |  |
| COc1ccc(C2=NN(c3ccc(S(N)(=O)=O)cc3)C(c3ccc(OC)cc3)C2)cc1 (stereo not drawn) [CID 15201811] |  |  |  | 2.6 µM | 38% | EC50 (Cdc42 ACT (Cdc42Q61L); [3]): 2.5 µM |
| NS(=O)(=O)c1ccc(N2N=C(c3ccccc3)CC2c2ccccc2Cl)cc1 (stereo not drawn) [CID 44193697] | 7.2 µM | 39% | 7.4 µM |  |  |  |
| COc1ccc(C2CC(c3ccccc3OC)=NN2c2ccc(S(N)(=O)=O)cc2)cc1 (stereo not drawn) [CID 44143702] |  |  |  | 6 µM | 59% | Cdc42 WT Efficacy (Cdc42 WT; Table 5, R2 analogs): 59%; EC50 (Cdc42 ACT (Cdc42Q61L); [3]): 5.5 µM |
| O=C(O)c1cccnc1SCCc1ccccc1 [CID888706] |  |  |  |  |  | Outcome of primary screening [1]: activator |
| NS(=O)(=O)c1ccc(N2N=C(c3ccccc3)CC2c2ccccc2)cc1 (stereo not drawn) [CID 2837695] | 31.6 µM | 56% | 16.8 µM |  |  |  |
| COc1ccc(C2CC(C(C)(C)C)=NN2c2ccc(S(N)(=O)=O)cc2)cc1 (stereo not drawn) [CID 44193701] |  |  |  | > 100 µM | 33% | EC50 (Cdc42 ACT (Cdc42Q61L); [3]): > 100 µM |
| NS(=O)(=O)c1ccc(N2N=C(c3ccccc3)CC2c2ccc(Cl)cc2)cc1 (stereo not drawn) [CID 13927311] | 2.8 µM | 69% | 3.6 µM |  |  |  |
| COc1cccc(C2CC(c3ccccc3)=NN2c2ccc(S(N)(=O)=O)cc2)c1 (stereo not drawn) [CID 44143701] | 4.8 µM | 53% | 4.3 µM |  |  |  |
| NS(=O)(=O)c1ccc(N2N=C(c3ccccc3)CC2c2ccc(Br)cc2)cc1 (stereo not drawn) [CID 13927312, 4-[3-(4-bromophenyl)-5-phenyl-3,4-dihydropyrazol-2-yl]benzene sulfonamide] | 1.1 µM | 56% | 1.7 µM |  |  |  |
| COc1ccc(C2CC(c3cccc(OC)c3)=NN2c2ccc(S(N)(=O)=O)cc2)cc1 (stereo not drawn) [CID 44143698, 4-[5-(3-methoxyphenyl)-3-(4-methoxyphenyl)-3,4-dihydropyrazol-2-yl]benzenesulfonamide] |  |  |  | 1.5 µM | 50% | EC50 (Cdc42 ACT (Cdc42Q61L); [3]): 1.6 µM |
| COc1ccc(C2CC(c3ccccc3)=NN2c2ccc(S(N)(=O)=O)cc2)cc1OC (stereo not drawn) [CID 2971684] | 5.7 µM | 75% |  |  |  | EC50 (Cdc42 ACT (Cdc42Q61L)): 6.1 µM |
| COc1ccc(C2CC(c3ccsc3)=NN2c2ccc(S(N)(=O)=O)cc2)cc1 (stereo not drawn) [CID 44143713] |  |  |  | 7.3 µM | 47% | EC50 (Cdc42 ACT (Cdc42Q61L); [3]): 7.3 µM |
| NS(=O)(=O)c1ccc(N2N=C(c3ccccc3)CC2c2cccc(Br)c2)cc1 (stereo not drawn) [CID 44143703] | 3.3 µM | 55% | 3.7 µM |  |  |  |
| COc1ccc(C2CC(C)=NN2c2ccc(S(N)(=O)=O)cc2)cc1 (stereo not drawn) [CID 14870296] |  |  |  | > 100 µM | 17% | EC50 (Cdc42 ACT (Cdc42Q61L); [3]): > 100 µM |
| COc1ccc(C2CC(c3cccs3)=NN2c2ccc(S(N)(=O)=O)cc2)cc1 (stereo not drawn) [CID 44143712] |  |  |  | 2.9 µM | 57% | EC50 (Cdc42 ACT (Cdc42Q61L)): 4 µM |
| COc1ccc(C2CC(c3ccccc3)=NN2c2ccc(S(N)(=O)=O)cc2)cc1OC (stereo not drawn) [MLS000862339] |  |  |  |  |  | Outcome of primary screening [1]: specific inhibitors; IC50 (wild-type Cdc42): 0.4 µM |
| Cc1ccccc1C1CC(c2ccccc2)=NN1c1ccc(S(N)(=O)=O)cc1 (stereo not drawn) [CID 44143704] | 16.6 µM | 55% | 13.6 µM |  |  |  |
| NS(=O)(=O)c1ccc(N2N=C(c3ccccc3)CC2c2ccccc2Br)cc1 (stereo not drawn) [CID 44216862] | > 100 µM |  | > 100 µM |  |  |  |
| NS(=O)(=O)c1ccc(N2N=C(c3ccccc3)CC2c2cccc(Cl)c2)cc1 (stereo not drawn) [CID 44193696] | 3.3 µM | 64% | 3.6 µM |  |  |  |
